This note sets out measurements from US7868135B2, “Compositions of lipopeptide antibiotic derivatives and methods of use thereof” (priority 2003, dated 2011).

Starred links: 1 amine or outer side, 2 acyl side, 3 side chain; linkers in the order of their positions; H or OH if unused. Positions of bridges follow the written chain, without caps; N, C: chain ends. Non-standard residues stand in square brackets, D forms with d. Residues, ends and D or L forms follow the SMILES beside them. Groups on a side chain read outwards from the residue. ξ: configuration not given here. *: point of attachment. X25 = CC(NC(=O)[C@@H]1CCC(=O)N1)C(N[*:1])C(=O)[*:2]; Adamantane1carbonyl = O=C(C12CC3CC(CC(C3)C1)C2)*; X45 = CCN(CC)CCC(=O)NC(C)C(N[*:1])C(=O)[*:2]; ξAbu(βξ-NH2) = CC(N[*:3])C(N[*:1])C(=O)[*:2]; Phac(3-amino) = O=C(Cc1cccc(N[*:1])c1)[*:2]; Benzoyl(3-OPh) = O=C(c1cccc(Oc2ccccc2)c1)*; Pentadecanoyl = CCCCCCCCCCCCCCC(=O)*; ξAsp(βξ-Me) = CC(C(=O)O)C(N)C(=O)O; Palmitoyl = CCCCCCCCCCCCCCCC(=O)*; X1 = O=C(Cc1ccc(N[*:1])cc1)[*:2]; Myristoyl = CCCCCCCCCCCCCC(=O)*; ξAbu(3ξ-NH2) = CC(N)C(N)C(=O)O; Octanoyl = CCCCCCCC(=O)*; Dab = NCC[C@H](N)C(=O)O; Pip = O=C(O)[CH]1CCCCN1; ξD = NC(CC(=O)O)C(=O)O; ξPip = O=C(O)C1CCCCN1; ξV = CC(C)C(N)C(=O)O; ξP = O=C(O)C1CCCN1; Sar = CNCC(=O)O A value given as a limit tells only on which side of the number the result lay.

One assay concerns Staphylococcus aureus (MSSA). Particulars: 24 h. How it is done: (“Approved Standard M7-A3”).
The antimicrobial lipopeptide derivatives described herein were tested for antimicrobial activity against Gram-positive bacteria as follows. The minimum inhibitory concentrations (MIC) of the antimicrobial lipopeptide derivatives of the invention were determined using NCCLS guidelines M7-A6 (2003) with a slight modification in that doubling serial dilutions were used to dilute the test compounds. The broth phase microdilution method was used. Isolated colonies of Staphylococcus aureus (MSSA) from an 18-24 hour blood agar plate cultures were used to inoculate cation adjusted Mueller-Hinton broth (CAMHB) supplemented with 0.625 mM calcium. […] A negative control containing media alone and a positive growth control containing bacteria with media alone were also included. MICs were determined after incubating the plates at about 37° C. for 24 hours. […] In Tables 1 to 16, R is the core cyclic peptide of amphomycin or aspartocin, which can be in the form of a β-isomer, an anhydro, a dianhydro, or any combination thereof. […] Furthermore, a person of skill in the art will appreciate that all the pounds, or groups of compounds, derived from the various combinations of and substituents shown in Tables 1 to 16, are disclosed by the present the same extent as if each compound or group of compounds was set forth individually.
`CC(C)C1NC(=O)C(C(C)N)NC(=O)CNC(=O)C(CC(=O)O)NC(=O)CNC(=O)C(CC(=O)O)NC(=O)C(C(C)C(=O)O)NC(=O)C2CCCCN2C(=O)C(NC(=O)C(CC(=O)O)NC(=O)C23CC4CC(CC(C4)C2)C3)C(C)NC(=O)C2CCCN2C1=O` (stereo not drawn) [Compound 336] (Adamantane1carbonyl-D[ξAbu(βξ-NH2)][Pip][ξAsp(βξ-Me)]DGDG[ξAbu(3ξ-NH2)]VP; lactam 2-C; configuration not given here): the MIC is over 64 µg/mL.

Take `CCCCCCCCCCCCCCC(=O)NC(CC(=O)O)C(=O)NC1C(=O)N2CCCCC2C(=O)NC(C(C)C(=O)O)C(=O)NC(CC(=O)O)C(=O)NCC(=O)NC(CC(=O)O)C(=O)NCC(=O)NC(C(C)NC(=O)[C@@H]2CCC(=O)N2)C(=O)NC(C(C)C)C(=O)N2CCCC2C(=O)NC1C` (stereo partly drawn) [Compound 373] (Pentadecanoyl-[ξD][ξAbu(βξ-NH2)][ξPip][ξAsp(βξ-Me)][ξD]G[ξD]G[X25][ξV][ξP]; lactam 2-C): the MIC was over 64 µg/mL.

As for `CCCCCCCCCCCCCCC(=O)NC(CC(=O)O)C(=O)NC1C(=O)N2CCCCC2C(=O)NC(C(C)C(=O)O)C(=O)NC(CC(=O)O)C(=O)NCC(=O)NC(CC(=O)O)C(=O)NCC(=O)NC(C(C)NC(=O)[C@@H](N)C(C)C)C(=O)NC(C(C)C)C(=O)N2CCCC2C(=O)NC1C` (stereo partly drawn) [Compound 169, C15-Amphomycin-9-Val], the MIC was 4 µg/mL.

As for `CCCCCCCCCCCCCCC(=O)NC(CC(=O)O)C(=O)NC1C(=O)N2CCCCC2C(=O)NC(C(C)C(=O)O)C(=O)NC(CC(=O)O)C(=O)NCC(=O)NC(CC(=O)O)C(=O)NCC(=O)NC(C(C)NC(=O)CCN(CC)CC)C(=O)NC(C(C)C)C(=O)N2CCCC2C(=O)NC1C` (stereo not drawn) [Compound 246, C15-Amphomycin-9-(N,N-Diethyl-β-Ala)] (Pentadecanoyl-D[ξAbu(βξ-NH2)][Pip][ξAsp(βξ-Me)]DGDG[X45]VP; lactam 2-C; configuration not given here), the MIC came out at 2 µg/mL.

Turning to `CCCCCCCCCCCCCCC(=O)NC(CC(=O)O)C(=O)NC1C(=O)N2CCCCC2C(=O)NC(C(C)C(=O)O)C(=O)NC(CC(=O)O)C(=O)NCC(=O)NC(CC(=O)O)C(=O)NCC(=O)NC(C(C)NC(=O)[C@@H](N)CC#N)C(=O)NC(C(C)C)C(=O)N2CCCC2C(=O)NC1C` (stereo partly drawn) [Compound 35, C15-Amphomycin-9-(β-Cyano-Ala)], the MIC is 8 to 16 µg/mL.

Regarding `CCCCCCCCCCCCCCC(=O)NC(CC(=O)O)C(=O)NC1C(=O)N2CCCCC2C(=O)NC(C(C)C(=O)O)C(=O)NC(CC(=O)O)C(=O)NCC(=O)NC(CC(=O)O)C(=O)NCC(=O)NC(C(C)NC(=O)CN(C)C(=O)[C@@H](N)CCN)C(=O)NC(C(C)C)C(=O)N2CCCC2C(=O)NC1C` (stereo partly drawn) [Compound 145, C15-Amphomycin-9-Sar-gDab] (Pentadecanoyl-[ξD][ξAbu(βξ-NH2)][ξPip][ξAsp(βξ-Me)][ξD]G[ξD]G[ξAbu(βξ-NH2)]([Sar-Dab])[ξV][ξP]; lactam 2-C), the MIC was 2 µg/mL.

Regarding `CC(C)C1NC(=O)C(C(C)N)NC(=O)CNC(=O)C(CC(=O)O)NC(=O)CNC(=O)C(CC(=O)O)NC(=O)C(C(C)C(=O)O)NC(=O)C2CCCCN2C(=O)C(NC(=O)C(CC(=O)O)NC(=O)c2cccc(Oc3ccccc3)c2)C(C)NC(=O)C2CCCN2C1=O` (stereo not drawn) [Compound 327, (3-(Phenoxy)-Benzoyl)-Amphomycin] ({Benzoyl(3-OPh)}-D[ξAbu(βξ-NH2)][Pip][ξAsp(βξ-Me)]DGDG[ξAbu(3ξ-NH2)]VP; lactam 2-C; configuration not given here), the MIC was over 64 µg/mL.

Take `CCCCCCCC(=O)NCC(=O)NC(CC(=O)O)C(=O)NC1C(=O)N2CCCCC2C(=O)NC(C(C)C(=O)O)C(=O)NC(CC(=O)O)C(=O)NCC(=O)NC(CC(=O)O)C(=O)NCC(=O)NC(C(C)N)C(=O)NC(C(C)C)C(=O)N2CCCC2C(=O)NC1C` (stereo not drawn) [Compound 359, C8-Gly-Amphomycin] (Octanoyl-GD[ξAbu(βξ-NH2)][Pip][ξAsp(βξ-Me)]DGDG[ξAbu(3ξ-NH2)]VP; lactam 3-C; configuration not given here): the MIC is over 64 µg/mL.

On to `CCCCCCCCCCCCCCC(=O)NC(CC(=O)O)C(=O)NC1C(=O)N2CCCCC2C(=O)NC(C(C)C(=O)O)C(=O)NC(CC(=O)O)C(=O)NCC(=O)NC(CC(=O)O)C(=O)NCC(=O)NC(C(C)NC(=O)CCCNC(=O)CCCN)C(=O)NC(C(C)C)C(=O)N2CCCC2C(=O)NC1C` (stereo not drawn) [Compound 94, C15-Amphomycin-9-GABA-GABA], for which the MIC was 2 µg/mL.

As to `CCCCCCCCCCCCCCC(=O)NC(CC(=O)O)C(=O)NC1C(=O)N2CCCCC2C(=O)NC(C(C)C(=O)O)C(=O)NC(CC(=O)O)C(=O)NCC(=O)NC(CC(=O)O)C(=O)NCC(=O)NC(C(C)NC(=O)[C@@H](N)CCCC)C(=O)NC(C(C)C)C(=O)N2CCCC2C(=O)NC1C` (stereo partly drawn) [Compound 171, C15-Amphomycin-9-Nle], the MIC turned out to be 8 µg/mL.

As for `CCCCCCCCCCCCCC(=O)Nc1cccc(CC(=O)NC(CC(=O)O)C(=O)NC2C(=O)N3CCCCC3C(=O)NC(C(C)C(=O)O)C(=O)NC(CC(=O)O)C(=O)NCC(=O)NC(CC(=O)O)C(=O)NCC(=O)NC(C(C)N)C(=O)NC(C(C)C)C(=O)N3CCCC3C(=O)NC2C)c1` (stereo not drawn) [Compound 303, C14-(M-Apa)-Amphomycin] (Myristoyl-[Phac(3-amino)]D[ξAbu(βξ-NH2)][Pip][ξAsp(βξ-Me)]DGDG[ξAbu(3ξ-NH2)]VP; lactam 3-C; configuration not given here), the MIC came to 0.5 µg/mL.

Regarding `CCCCCCCCCCCCCCC(=O)NC(CC(=O)O)C(=O)NC1C(=O)N2CCCCC2C(=O)NC(C(C)C(=O)O)C(=O)NC(CC(=O)O)C(=O)NCC(=O)NC(CC(=O)O)C(=O)NCC(=O)NC(C(C)NC(=O)[C@@H](N)Cc2ccc(F)cc2)C(=O)NC(C(C)C)C(=O)N2CCCC2C(=O)NC1C` (stereo partly drawn) [Compound 30, C15-Amphomycin-9-(P—F-Phe)], the MIC lay within 32 to 64 µg/mL.

For the compound `CCCCCCCCCCCCCCC(=O)Nc1ccc(CC(=O)NC(CC(=O)O)C(=O)NC2C(=O)N3CCCCC3C(=O)NC(C(C)C(=O)O)C(=O)NC(CC(=O)O)C(=O)NCC(=O)NC(CC(=O)O)C(=O)NCC(=O)NC(C(C)N)C(=O)NC(C(C)C)C(=O)N3CCCC3C(=O)NC2C)cc1` (stereo not drawn) [Compound 312, C15-(p-Apa)-Amphomycin] (Pentadecanoyl-[X1]D[ξAbu(βξ-NH2)][Pip][ξAsp(βξ-Me)]DGDG[ξAbu(3ξ-NH2)]VP; lactam 3-C; configuration not given here), the MIC amounted to 1 µg/mL.

Consider `CCCCCCCCCCCCCCC(=O)NC(CC(=O)O)C(=O)NC1C(=O)N2CCCCC2C(=O)NC(C(C)C(=O)O)C(=O)NC(CC(=O)O)C(=O)NCC(=O)NC(CC(=O)O)C(=O)NCC(=O)NC(C(C)NC(=O)[C@@H](N)CCC(=O)O)C(=O)NC(C(C)C)C(=O)N2CCCC2C(=O)NC1C` (stereo partly drawn) [Compound 29, C15-Amphomycin-9-Glu], for which the MIC was determined as 1 µg/mL.

For `CCCCCCCC(=O)Nc1ccc(C(=O)NC(CC(=O)O)C(=O)NC2C(=O)N3CCCCC3C(=O)NC(C(C)C(=O)O)C(=O)NC(CC(=O)O)C(=O)NCC(=O)NC(CC(=O)O)C(=O)NCC(=O)NC(C(C)N)C(=O)NC(C(C)C)C(=O)N3CCCC3C(=O)NC2C)cc1` (stereo not drawn) [Compound 282, C8-PABA-Amphomycin], the MIC worked out at 32 µg/mL.

Take `CCCCCCCCCCCCCCCC(=O)Nc1ccc(CC(=O)NC(CC(=O)O)C(=O)NC2C(=O)N3CCCCC3C(=O)NC(C(C)C(=O)O)C(=O)NC(CC(=O)O)C(=O)NCC(=O)NC(CC(=O)O)C(=O)NCC(=O)NC(C(C)N)C(=O)NC(C(C)C)C(=O)N3CCCC3C(=O)NC2C)cc1` (stereo not drawn) [Compound 281, C16-(p-Apa)-Amphomycin] (Palmitoyl-[X1]D[ξAbu(βξ-NH2)][Pip][ξAsp(βξ-Me)]DGDG[ξAbu(3ξ-NH2)]VP; lactam 3-C; configuration not given here): the MIC worked out at 2 µg/mL.

As for `CCCCCCCCCCCCCCC(=O)NC(CC(=O)O)C(=O)NC1C(=O)N2CCCCC2C(=O)NC(C(C)C(=O)O)C(=O)NC(CC(=O)O)C(=O)NCC(=O)NC(CC(=O)O)C(=O)NCC(=O)NC(C(C)NC(=O)CNC(=O)[C@@H](N)CN)C(=O)NC(C(C)C)C(=O)N2CCCC2C(=O)NC1C` (stereo partly drawn) [Compound 157, C15-Amphomycin-9-Gly-Dap], the MIC fell in the range of 4 to 8 µg/mL.

For the compound `CCCCCCCCCCCCCCC(=O)NC(CC(=O)O)C(=O)NC1C(=O)N2CCCCC2C(=O)NC(C(C)C(=O)O)C(=O)NC(CC(=O)O)C(=O)NCC(=O)NC(CC(=O)O)C(=O)NCC(=O)NC(C(C)NC(=O)[C@@H](N)c2ccccc2)C(=O)NC(C(C)C)C(=O)N2CCCC2C(=O)NC1C` (stereo partly drawn) [Compound 41, C15-Amphomycin-9-Phg], the MIC turned out to be 4 µg/mL.

As for `CCCCCCCCCCCCCCC(=O)NC(CC(=O)O)C(=O)NC1C(=O)N2CCCCC2C(=O)NC(C(C)C(=O)O)C(=O)NC(CC(=O)O)C(=O)NCC(=O)NC(CC(=O)O)C(=O)NCC(=O)NC(C(C)NC(=O)[C@@H]2C[C@@H](O)CN2)C(=O)NC(C(C)C)C(=O)N2CCCC2C(=O)NC1C` (stereo partly drawn) [Compound 167, C15-Amphomycin-9-Hyp], the MIC was 4 to 8 µg/mL.

The assay is the same for the next values; noted with them: S. aureus (MSSA), CAMHB supplemented with 0.625 mM calcium, 24 hours at about 37° C.; a range = compound tested multiple times.
Take `CCCCCCCCCCCCCCC(=O)NC(CC(=O)O)C(=O)NC1C(=O)N2CCCCC2C(=O)NC(C(C)C(=O)O)C(=O)NC(CC(=O)O)C(=O)NCC(=O)NC(CC(=O)O)C(=O)NCC(=O)NC(C(C)NC(=O)[C@@H]2CCC(=O)O2)C(=O)NC(C(C)C)C(=O)N2CCCC2C(=O)NC1C` (stereo partly drawn) [Compound 210, C15-Amphomycin-9-((S)-(+)-5-Oxo-2-Tetrahydrofurancarbonyl)]: the MIC amounted to 2 µg/mL.

As for `CCCCCCCCCCCCC(=O)NC(CC(=O)O)C(=O)NC1C(=O)N2CCCCC2C(=O)NC(C(C)C(=O)O)C(=O)NC(CC(=O)O)C(=O)NCC(=O)NC(CC(=O)O)C(=O)NCC(=O)NC(C(C)NC(=O)CCCN)C(=O)NC(C(C)C)C(=O)N2CCCC2C(=O)NC1C` (stereo not drawn) [Compound 50, C13-Amphomycin-9-GABA], the MIC is reported as 50/1 μg/mL.

As a reminder, the MIC is the smallest concentration in the dilution series that meets the test's criterion for growth inhibition.
